Reference: patent US8546377B2 (AbbVie Inc., priority 2009, dated 2013)

Columns and labels:
[1] = target: T1, human serotonin 5-HT2c receptor (Homo sapiens, UniProt P28335); assay: Human 5-HT2C receptor radioligand binding assay (agonist site, [125I](±)DOI); conditions: membranes of transfected CHO cells, 0.2 nM [125I](±)DOI, 15 minutes at 37° C.
T1 construct: expressed in transfected cells; host or cells: CHO cells (membrane homogenate)
T1 sequence (P28335 33-458): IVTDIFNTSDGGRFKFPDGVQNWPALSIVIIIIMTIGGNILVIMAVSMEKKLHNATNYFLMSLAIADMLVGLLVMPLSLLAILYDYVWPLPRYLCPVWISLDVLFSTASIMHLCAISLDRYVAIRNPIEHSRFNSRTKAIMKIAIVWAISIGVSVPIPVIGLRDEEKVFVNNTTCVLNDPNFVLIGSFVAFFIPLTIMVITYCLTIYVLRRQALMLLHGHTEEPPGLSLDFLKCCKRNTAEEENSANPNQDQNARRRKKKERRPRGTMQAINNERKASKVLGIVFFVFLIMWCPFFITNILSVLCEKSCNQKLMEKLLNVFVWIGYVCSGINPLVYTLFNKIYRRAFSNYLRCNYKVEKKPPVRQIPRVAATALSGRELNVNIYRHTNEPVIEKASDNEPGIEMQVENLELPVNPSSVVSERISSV
In short: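 Affinity for the agonist site measured by radioligand binding in transfected CHO cells expressing the human receptor, using [125I](±)DOI.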

[2] = target: T2, 5HT2C receptors (Homo sapiens, UniProt P28335); assay: Human 5-HT2C functional assay in 1321N1 cells (intracellular calcium, FLIPR); format: cell-based; design: expressed in transfected cells; host or cells: 1321N1 cells; conditions: 1321N1 cells stably transfected, maximum calcium response; read-out: EC50 (μM), 5-HT2c Agonist Activity
T2 sequence (P28335 33-458): T1 sequence (P28335 33-458)
In short: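 Intracellular calcium in 1321N1 cells stably transfected with human 5-HT2C, serum-starved overnight, Fluo4 AM-loaded with 1% probenecid. Compounds at 10^−10 to 10^−5 M final, alone or with 10^−9 M serotonin; peak FLIPR response. EC50 from four-parameter logistic fit; Emax as % of serotonin effect.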

[3] = target: T3, 5HT2B receptors (Homo sapiens, UniProt P41595); assay: Human 5-HT2B functional assay in CHO-K1 cells (calcium flux, FLIPR); format: cell-based; conditions: CHO-K1 cells over-expressing 5HT2B, calcium flux; read-out: EC50 (μM), 5-HT2B Agonist Activity
T3 construct: expressed in transfected cells; host or cells: CHO-K1 cells
T3 sequence (P41595 whole entry): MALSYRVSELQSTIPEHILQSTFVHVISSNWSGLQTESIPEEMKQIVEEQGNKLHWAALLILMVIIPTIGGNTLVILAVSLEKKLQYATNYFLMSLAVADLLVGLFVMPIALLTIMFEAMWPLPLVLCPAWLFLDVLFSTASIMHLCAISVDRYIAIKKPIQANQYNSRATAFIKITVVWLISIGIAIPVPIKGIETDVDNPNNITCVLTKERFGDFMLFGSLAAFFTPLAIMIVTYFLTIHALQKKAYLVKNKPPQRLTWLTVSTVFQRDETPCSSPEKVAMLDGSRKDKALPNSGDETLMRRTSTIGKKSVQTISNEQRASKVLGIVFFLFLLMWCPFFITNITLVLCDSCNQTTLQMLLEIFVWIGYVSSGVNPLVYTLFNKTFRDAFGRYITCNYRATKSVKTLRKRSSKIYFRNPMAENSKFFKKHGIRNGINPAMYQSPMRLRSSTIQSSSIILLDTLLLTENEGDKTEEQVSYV
In short: (§1)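 Frozen CHO-K1 cells over-expressing receptor, serum-starved overnight, loaded with Ca4 dye plus 2.5 mM probenecid for 60 min at room temperature. FLIPR fluorescence (ex 480/em 530 nm, 25° C) recorded 3 min after compound addition; 6-point 1:10 series from 10 μM, 0.2% DMSO. Response normalized to serotonin, 4-parameter fit gives EC50; Emax as % of serotonin.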

[4] = target: T2, 5HT2C receptors; assay: Human 5-HT2C functional assay in CHO-K1 cells (calcium flux, FLIPR); format: cell-based; design: expressed in transfected cells; host or cells: CHO-K1 cells; conditions: CHO-K1 cells over-expressing 5HT2C, calcium flux; read-out: EC50 (μM), 5-HT2c Agonist Activity
In short: as §1

O=C1NCC2CNCCN2c2ccc(NS(=O)(=O)c3ccccc3)cc21 (stereo not shown) [Example 48, N-(7-oxo-1,2,3,4,4a,5,6,7-octahydropyrazino[1,2-a][1,4]benzodiazepin-9-yl)benzenesulfonamide]
Ki [1]: 27 µM | EC50 [2]: > 10 µM | EC50 [3]: > 10 µM | EC50 [4]: > 10 µM
